Data on 24 compounds can be found in patent US10023592B2, “Bromodomain inhibitors” (Celgene Quanticel Research, Inc., priority 2013, dated 2018).

One test addresses BRD4(BD1) (Homo sapiens (Human), UniProt O60885). The test is described as follows: In vitro enzyme inhibition assay (BRD4 AlphaScreen). In kind it is binding. Put shortly: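 AlphaScreen proximity readout, using streptavidin donor and Ni-chelate acceptor beads at 5 μg/mL final, monitors biotin-H4 tetraacetylated peptide interaction with purified His-tagged BRD4.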
(Alpha assays give light when donor and acceptor beads are brought close together.)

The subject of test [1] is Raji, human Burkitts lymphoma cells. Description: Cell-MTS proliferation assay, Raji. It is filed as cell-based. Particulars: Homo sapiens, 168 hr. Put shortly:
(§1)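 Cells were seeded per 96-well at densities giving ~90% confluence by day 7 (Raji 15,000, HL-60 5,000, NCI-H460 3,000) and dosed 24 hr later with an 11-point dilution, 100 μM to 2.0 nM final. Seven-day MTS colorimetric read at OD490; IC50 from background-subtracted, DMSO-normalised values.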
(In general: Formazan colour is commonly taken as a measure of viable cells.)

Test [2] relates to HL-60, human proleukemia cells. The test is described as follows: Cell-MTS proliferation assay, HL-60. Particulars: Homo sapiens, 168 hr. It is filed as cell-based. Put shortly: as §1
Test [3] deals with NCI-H460, human non-small cell lung cancer cells. The test is described as follows: Cell-MTS proliferation assay, NCI-H460. Particulars: Homo sapiens, 168 hr. In kind it is cell-based. Put shortly: as §1
The mark [4] stands for this setting: Raji, Cell-MTS, class symbols A/B/C.
[5] abbreviates: HL-60, Cell-MTS, class symbols A/B/C.
Setting [6] is: NCI-H460, Cell-MTS, class symbols A/B/C.
Setting [7] is: in vitro enzyme inhibition assay.
[8] abbreviates: Cell-MTS proliferation, Raji cells.
[9] abbreviates: Cell-MTS proliferation, HL-60 cells.
The mark [10] stands for this setting: Cell-MTS proliferation, NCI-H460 cells.
The mark [11] stands for this setting: NCI-H460, Cell-MTS proliferation.

The IC50 is the concentration that inhibits the measured activity by half. Low values mean inhibition by little substance, high ones a need for much substance. On to `Cn1cc(-c2ccc3c(=O)n(C)cc(-c4cc(S(C)(=O)=O)ccc4OCC4CC4)c3c2)cn1` [Example 46, 4-[2-(cyclopropylmethoxy)-5-methylsulfonylphenyl]-2-methyl-6-(1-methylpyrazol-4-yl)isoquinolin-1-one], for which the IC50 on BRD4(BD1) (class symbols A/B/C) was under 500 nM; in test [1] (setting [4]) it was under 500 nM; in test [2] (setting [5]) it was under 500 nM; in test [3] (setting [6]), over 5000 nM.

Consider `CCS(=O)(=O)Nc1ccc(Oc2ccc(F)cc2F)c(-c2cc(C)c(=O)n(C)c2)c1` [Example 472, N-[4-(2,4-difluorophenoxy)-3-(1,5-dimethyl-6-oxopyridin-3-yl)phenyl]ethanesulfonamide], for which the half-inhibitory concentration (IC50) is under 500 nM on BRD4(BD1) (setting [7]), under 500 nM in test [1] (setting [8]), under 500 nM in test [2] (setting [9]) and over 5000 nM in test [3] (setting [10]).

On to `Cc1cc(-c2cc(S(C)(=O)=O)cc3c2OC(C)C3)cn(C)c1=O` (stereo not drawn) [Example 486, 1,3-dimethyl-5-(2-methyl-5-methylsulfonyl-2,3-dihydro-1-benzofuran-7-yl)pyridin-2-one], for which the IC50 against BRD4(BD1) (setting [7]) is 500 to 5000 nM; in test [1] (setting [8]) it was over 5000 nM; in test [2] (setting [9]) it was 500 to 5000 nM; in test [3] (setting [10]), over 5000 nM.

On to `CCC(=O)Nc1ccc(S(C)(=O)=O)cc1-c1cn(C)c(=O)c2ccccc12` [Example 221, N-[2-(2-methyl-1-oxoisoquinolin-4-yl)-4-methylsulfonylphenyl]propanamide], for which the IC50 against BRD4(BD1) (setting [7]) is over 5000 nM; in test [1] (Raji, Cell-MTS proliferation), over 5000 nM; in test [2] (HL-60, Cell-MTS proliferation), over 5000 nM; in test [3] (setting [11]), over 5000 nM.

Turning to `CCS(=O)(=O)Nc1cc(-c2cn(C)c(=O)c3ccc(-c4cnn(C)c4)cc23)c(OC)cc1F` [Example 86, N-[2-fluoro-4-methoxy-5-[2-methyl-6-(1-methylpyrazol-4-yl)-1-oxoisoquinolin-4-yl]phenyl]ethanesulfonamide], the IC50 against BRD4(BD1) (class symbols A/B/C) is under 500 nM; in test [1] (setting [4]) it was under 500 nM; in test [2] (setting [5]), under 500 nM; in test [3] (setting [6]), 500 to 5000 nM.

As for `CCS(=O)(=O)Nc1ccc(Oc2ccc(F)cc2F)c(-c2cn(C)c(=O)c3ccoc23)c1` [Example 379, N-[4-(2,4-difluorophenoxy)-3-(5-methyl-4-oxofuro[3,2-c]pyridin-7-yl)phenyl] ethanesulfonamide], the IC50 against BRD4(BD1) (setting [7]) was under 500 nM; in test [1] (setting [8]), under 500 nM; in test [2] (setting [9]), under 500 nM; in test [3] (setting [10]) it was over 5000 nM.

On to `CCS(=O)(=O)Nc1ccc(Cl)c(-c2cn(C)c(=O)c3ccc(F)cc23)c1` [Example 50, N-[4-chloro-3-(6-fluoro-2-methyl-1-oxoisoquinolin-4-yl)phenyl] ethanesulfonamide], for which the IC50 is under 500 nM at BRD4(BD1) (class symbols A/B/C), 500 to 5000 nM in test [1] (setting [4]), under 500 nM in test [2] (setting [5]) and 500 to 5000 nM in test [3] (setting [6]).

`CNc1cc(-c2ccc(OC)c(NS(C)(=O)=O)c2)cn(C)c1=O` [Example 110, N-[2-methoxy-5-[1-methyl-5-(methylamino)-6-oxopyridin-3-yl]phenyl]methanesulfonamide]: the IC50 at BRD4(BD1) (class symbols A/B/C) is under 500 nM; in test [1] (setting [4]) it was over 5000 nM; in test [2] (setting [5]), 500 to 5000 nM; in test [3] (setting [6]), over 5000 nM.

On to `CCS(=O)(=O)c1cc(-c2cn(C)c(=O)c3ccccc23)c(OCC2CC2)cn1` [Example 207, 4-[5-(cyclopropylmethoxy)-2-ethylsulfonylpyridin-4-yl]-2-methylisoquinolin-1-one], for which the IC50 at BRD4(BD1) (setting [7]) is under 500 nM; in test [1] (Raji, Cell-MTS proliferation), under 500 nM; in test [2] (HL-60, Cell-MTS proliferation), under 500 nM; in test [3] (setting [11]), over 5000 nM.

Regarding `Cn1cc(-c2cc(NS(C)(=O)=O)ccc2Oc2ccc(F)cc2F)n2cncc2c1=O` [Example 367, N-[4-(2,4-difluorophenoxy)-3-(7-methyl-8-oxoimidazo[1,5-a]pyrazin-5-yl)phenyl]methanesulfonamide], the IC50 against BRD4(BD1) (setting [7]) was under 500 nM; in test [1] (Raji, Cell-MTS proliferation), under 500 nM; in test [2] (HL-60, Cell-MTS proliferation), under 500 nM; in test [3] (setting [11]), over 5000 nM.

With `COc1ccc(S(=O)(=O)CCO)cc1-c1cn(C)c(=O)c2ccc(-c3cnn(C)c3)cc12` [Example 208, 4-[5-(2-hydroxyethylsulfonyl)-2-methoxyphenyl]-2-methyl-6-(1-methylpyrazol-4-yl)isoquinolin-1-one], the IC50 against BRD4(BD1) (setting [7]) is under 500 nM; in test [1] (Raji, Cell-MTS proliferation) it was 500 to 5000 nM; in test [2] (HL-60, Cell-MTS proliferation), under 500 nM; in test [3] (setting [11]) it was over 5000 nM.

As for `Cn1cc(-c2cc(CS(C)(=O)=O)ccc2Oc2ccc(F)cc2F)n2cncc2c1=O` [Example 372, 5-[2-(2,4-difluorophenoxy)-5-(methylsulfonylmethyl)phenyl]-7-methylimidazo[1,5-a]pyrazin-8-one], the IC50 against BRD4(BD1) (setting [7]) was under 500 nM; in test [1] (Raji, Cell-MTS proliferation), under 500 nM; in test [2] (HL-60, Cell-MTS proliferation) it was under 500 nM; in test [3] (setting [11]) it was over 5000 nM.

With `Cc1cc(-c2cn(CS(C)(=O)=O)c(=O)cc2OCC2CC2)cn(C)c1=O` [Example 382, 5-[4-(cyclopropylmethoxy)-1-(methylsulfonylmethyl)-6-oxopyridin-3-yl]-1,3-dimethylpyridin-2-one], the IC50 against BRD4(BD1) (setting [7]) was under 500 nM; in test [1] (setting [8]) it was 500 to 5000 nM; in test [2] (setting [9]), under 500 nM; in test [3] (setting [10]) it was over 5000 nM.

With `COc1ccc(-c2cc(N)c(=O)n(C)c2)cc1NS(C)(=O)=O` [Example 109, N-[5-(5-amino-1-methyl-6-oxopyridin-3-yl)-2-methoxyphenyl]methanesulfonamide], the IC50 was 500 to 5000 nM on BRD4(BD1) (class symbols A/B/C), over 5000 nM in test [1] (setting [4]), over 5000 nM in test [2] (setting [5]) and over 5000 nM in test [3] (setting [6]).

Consider `CCS(=O)(=O)c1ccc(OCC2CC2)c(-c2cn(C)c(=O)c3occc23)c1` [Example 252, 4-[2-(cyclopropylmethoxy)-5-ethylsulfonylphenyl]-6-methylfuro[2,3-c]pyridine-7-one], for which the IC50 is under 500 nM at BRD4(BD1) (setting [7]); under 500 nM in test [1] (Raji, Cell-MTS proliferation); under 500 nM in test [2] (HL-60, Cell-MTS proliferation); over 5000 nM in test [3] (setting [11]).

Take `CCS(=O)(=O)Nc1ccc(Oc2ccc(F)cc2F)c(-c2cn(C)c(=O)cc2F)c1` [Example 139, N-[4-(2,4-difluorophenoxy)-3-(4-fluoro-1-methyl-6-oxopyridin-3-yl)phenyl]ethanesulfonamide]: the IC50 at BRD4(BD1) (class symbols A/B/C) is under 500 nM; in test [1] (setting [4]), under 500 nM; in test [2] (setting [5]), under 500 nM; in test [3] (setting [6]), over 5000 nM.

On to `Cc1cc(-c2cc(CS(C)(=O)=O)ccc2OCC(F)(F)F)cn(C)c1=O` [Example 427, 1,3-dimethyl-5-[5-(methylsulfonylmethyl)-2-(2,2,2-trifluoroethoxy)phenyl]pyridin-2-one], for which the IC50 on BRD4(BD1) (setting [7]) was under 500 nM; in test [1] (setting [8]) it was under 500 nM; in test [2] (setting [9]), under 500 nM; in test [3] (setting [10]), over 5000 nM.

For the compound `CCS(=O)(=O)c1ccc(OCC2CC2)c(-c2cc(OC(F)F)c(=O)n(C)c2)c1` [Example 287, 5-[2-(cyclopropylmethoxy)-5-ethylsulfonylphenyl]-3-(difluoromethoxy)-1-methylpyridin-2-one], the IC50 against BRD4(BD1) (setting [7]) was under 500 nM; in test [1] (Raji, Cell-MTS proliferation), 500 to 5000 nM; in test [2] (HL-60, Cell-MTS proliferation) it was under 500 nM; in test [3] (setting [11]) it was over 5000 nM.

In the case of `CCS(=O)(=O)c1ccc(NC2CCC(F)(F)CC2)c(-c2cc(C)c(=O)n(C)c2)c1` [Example 397, 5-[2-[(4,4-difluorocyclohexyl)amino]-5-ethylsulfonylphenyl]-1,3-dimethylpyridin-2-one], the IC50 against BRD4(BD1) (setting [7]) is under 500 nM; in test [1] (setting [8]), under 500 nM; in test [2] (setting [9]) it was under 500 nM; in test [3] (setting [10]) it was over 5000 nM.

Consider `Cc1cc(-c2cc(OCc3ccccc3C#N)cc(S(C)(=O)=O)c2)cn(C)c1=O` [Example 334, 2-[[3-(1,5-dimethyl-6-oxopyridin-3-yl)-5-methylsulfonylphenoxy]methyl]benzonitrile], for which the 50% inhibitory concentration (IC50) is under 500 nM on BRD4(BD1) (setting [7]); 500 to 5000 nM in test [1] (Raji, Cell-MTS proliferation); under 500 nM in test [2] (HL-60, Cell-MTS proliferation); over 5000 nM in test [3] (setting [11]).

Consider `CCS(=O)(=O)Nc1ccc(Oc2ccc(F)cc2F)c(-c2cc(C(F)(F)F)c(=O)n(C)c2)c1` [Example 138, N-[4-(2,4-difluorophenoxy)-3-[1-methyl-6-oxo-5-(trifluoromethyl)pyridine-3-yl]phenyl]ethanesulfonamide], for which the IC50 on BRD4(BD1) (class symbols A/B/C) was under 500 nM; in test [1] (setting [4]) it was under 500 nM; in test [2] (setting [5]), under 500 nM; in test [3] (setting [6]), over 5000 nM.

In the case of `Cn1cc(-c2cc(S(C)(=O)=O)ccc2OCC2CC2)c2ccccc2c1=O` [Example 89, 4-[2-(cyclopropylmethoxy)-5-methylsulfonylphenyl]-2-methylisoquinolin-1-one], the IC50 on BRD4(BD1) (class symbols A/B/C) was under 500 nM; in test [1] (setting [4]) it was under 500 nM; in test [2] (setting [5]), under 500 nM; in test [3] (setting [6]), over 5000 nM.

Regarding `COc1ccc2c(=O)n(C)cc(-c3cc(S(C)(=O)=O)ccc3OCC3CC3)c2c1` [Example 198, 4-(2-(cyclopropylmethoxy)-5-(methylsulfonyl)phenyl)-6-methoxy-2-methylisoquinolin-1(2H)-one], the IC50 is under 500 nM at BRD4(BD1) (setting [7]); under 500 nM in test [1] (Raji, Cell-MTS proliferation); under 500 nM in test [2] (HL-60, Cell-MTS proliferation); over 5000 nM in test [3] (setting [11]).

Consider `Cc1cc(-c2cc(O[C@H](C)c3ccccc3)cc(S(C)(=O)=O)c2)cn(C)c1=O` [Example 341, 1,3-dimethyl-5-[3-methylsulfonyl-5-[(1R)-1-phenylethoxy]phenyl]pyridin-2-one], for which the IC50 against BRD4(BD1) (setting [7]) is under 500 nM; in test [1] (Raji, Cell-MTS proliferation), under 500 nM; in test [2] (HL-60, Cell-MTS proliferation), under 500 nM; in test [3] (setting [11]), over 5000 nM.
